Laboratory results reported in PubChem BioAssay (NCI).
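Growth conditions: 96-well plates. Treatment: test compound, 48 hours, 5 concentrations. Analysis: linear interpolation between bracketing concentrations; unreached endpoints set to highest concentration. Abbreviation: GI50, concentration required for 50% inhibition of growth. Definition used: TGI = concentration required for complete inhibition of growth.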

Legend:
Assay in all cases: NCI tumour cell line growth inhibition, 48 h
[1] = tested on: KM12 colon
[2] = tested on: SN12C renal
[3] = tested on: SK-MEL-5 melanoma
[4] = tested on: SK-MEL-28 melanoma
[5] = tested on: ACHN renal
[6] = tested on: SF-295 CNS
[7] = tested on: HL-60(TB) leukemia
[8] = tested on: OVCAR-4 ovarian
[9] = tested on: MDA-MB-231 breast
[10] = tested on: MDA-MB-435

| SMILES | TGI [1] [µM] | TGI [2] [µM] | TGI [3] [µM] | TGI [4] [µM] | TGI [5] [µM] | TGI [6] [µM] | TGI [7] [µM] | TGI [8] [µM] | GI50 [1] [µM] | GI50 [2] [µM] | GI50 [9] [µM] | TGI [9] [µM] | GI50 [3] [µM] | GI50 [4] [µM] | GI50 [5] [µM] | GI50 [7] [µM] | GI50 [8] [µM] | GI50 [6] [µM] | GI50 [10] [µM] | TGI [10] [µM] |
| --- | --- | --- | --- | --- | --- | --- | --- | --- | --- | --- | --- | --- | --- | --- | --- | --- | --- | --- | --- | --- |
| CCN(CC)c1oc(N(CC)CC)c(C(=O)Nc2ccccn2)c(=O)c1C(C)=O | > 100 | > 100 | > 100 | > 100 | > 100 | – | – | – | – | – | – | – | – | – | – | – | – | – | – | – |
| CC1(C)CC2CC(CC(C)(C)C2=O)C1=O | > 100 | > 100 | > 100 | > 100 | > 100 | > 100 | > 100 | > 100 | – | – | – | – | – | – | – | – | – | – | – | – |
| C[C@]12CCC(=O)CC1CCCC2=O (some centres not stated) | > 100 | > 100 | > 100 | > 100 | – | > 100 | > 100 | > 100 | – | – | – | – | – | – | – | – | – | – | – | – |
| COc1ccc(COC2CC(OC)OC(C)C2OC(=O)c2ccccc2)cc1 (configuration not stated) | > 100 | > 100 | 31.9 | > 100 | > 88.4 | > 100 | 49.7 | > 100 | – | – | – | – | – | – | – | – | – | – | – | – |
| CCCN(CCC)C(=O)C(=O)c1c(N)[nH]n(-c2ccccc2)c1=O | > 100 | > 100 | > 100 | – | > 100 | > 100 | > 100 | > 100 | – | – | – | – | – | – | – | – | – | – | – | – |
| CCOC(=O)c1cc2c(n1Cc1cc(OC)c(OC)c(OC)c1)-c1oncc1CCC2 | > 55.4 | > 40.1 | 7.01 | > 54.5 | > 59.9 | – | 0.765 | > 67.4 | 0.0884 | 0.628 | 0.372 | 2.46 | 0.207 | 0.255 | 0.296 | 0.221 | 1.36 | – | – | – |
| Cn1cccc1-c1cc(-c2ccc(Br)cc2)[nH]c(=O)c1C#N | > 100 | > 100 | > 100 | > 100 | > 100 | > 100 | – | > 100 | > 100 | > 100 | 82.5 | > 100 | > 100 | > 100 | > 100 | – | > 100 | > 100 | > 100 | > 100 |
| CNC(=O)OCc1c2ccncc2c(C)c2c1[nH]c1ccc(OC)cc12 | > 100 | > 100 | – | 2.04 | 0.563 | > 100 | 0.623 | 1.13 | – | – | – | – | – | – | – | – | – | – | – | – |
| COc1cnc2c(c1)C(=O)c1c-2n(CCCNC2=NCCS2)c(=O)c2cc(Cl)ccc12 | 2.82 | – | 2.12 | – | 1.49 | 1.07 | 3.39 | 2.95 | 1.33 | – | 1.52 | 3.07 | 0.812 | – | 0.0487 | 0.656 | 1.42 | 0.0776 | 1.43 | 2.76 |
| O=C(O)c1nc(-c2ccc(Cl)c(Cl)c2)nc2ccc(Cl)cc12 | > 100 | > 100 | > 100 | > 100 | > 100 | > 100 | 54.2 | – | – | – | – | – | – | – | – | – | – | – | – | – |
| Cn1cc(-c2csc(-c3cn(CCCN4CCCCC4)c4ccccc34)n2)c2cccnc21 | 3.25 | 3.31 | 3.26 | 3.19 | 3.01 | 3.18 | – | 4.07 | 1.72 | 1.79 | 1.77 | 3.32 | 1.82 | 1.7 | 1.63 | – | 2.02 | 1.71 | 1.87 | 3.47 |
